Experimental data: paper PMC3973950, “Synthesis of 5-arylidine amino-1,3,4-thiadiazol-2-[(N-substituted benzyol)]sulphonamides endowed with potent antioxidants and anticancer activity induces growth inhibition in HEK293, BT474 and NCI-H226 cells” (Medicinal Chemistry Research, 2013)

System: BT474 (breast cancer cell line)
Experiment: In vitro cytotoxicity by MTT assay, BT474
Format: cell-based
Conditions: Homo sapiens, BT-474, 0.005 μM, 72 h, read-out: % cytotoxicity (100 − % cell survival) of BT474 cell line
Protocol: (§1) The cancer cell line cultures of HEK 293 ([…]), BT474 (breast cancer cell line) and NCI-H226 (lung cancer) were obtained from Pasteur Institute of India, Coonoor, India, and were cultured in RPMI-1640 and 10 % heat-[…] New born calf serum with antibiotics [penicillin ([…]), streptomycin (100 μg/mL) and amphotericin B (25 μg/mL)]. The cells were maintained at 37 °C in a humidified atmosphere with 5 % CO2 and were subcultured twice a week.
(§2) The monolayer cell culture (100 μL) was trypsinized, and the cell count was adjusted to […] using medium containing 10 % new born calf serum. To each well of the 96-well microtitre plate, the diluted cell suspension (approximately 10,000 cells) (0.1 mL) was added and kept for 24 h in incubator at 37 °C in 5 % CO2 atmosphere for cell monolayer formation. After 24 h, when a partial monolayer was formed at the bottom of the well, the supernatant was flicked off, the monolayer was washed once, and different drugs, i.e. synthesized compounds (100 μL), were added to the cells in microtitre plates. The plates were then incubated at 37 °C for 3 days in 5 % CO2 atmosphere, and microscopic examination was carried out and observations recorded every 24 h. After 72 h, the sample solution in the wells was flicked off; MTT dye ([…]) was added to each well; plates were gently shaken and incubated for 4 h at 37 °C in 5 % CO2 incubator. The supernatant was removed and propanol (50 μL) was added; the plates were gently shaken to solubilize the formed formazan. The absorbance was measured using a microplate reader at a wavelength of 490 nm (Edmondson et al., [1988]; Prasad et al., [2005]; Chiruvella et al., [2008]; Chang et al., [2007]).

| SMILES | cytotoxicity at 0.005 µM [%] |
| --- | --- |
| Nc1ccc(S(=O)(=O)Nc2nnc(S(=O)(=O)NC(=O)c3ccccc3N)s2)cc1 [Compound 7b] | 27.4 |

Same assay, conditions: Homo sapiens, BT-474, 0.015 μM, 72 h, read-out: % cytotoxicity (100 − % cell survival) of BT474 cell line

| SMILES | cytotoxicity at 0.015 µM [%] |
| --- | --- |
| Nc1ccc(S(=O)(=O)Nc2nnc(S(=O)(=O)NC(=O)c3ccccc3N)s2)cc1 [Compound 7b] | 28.1 |

Same assay, conditions: Homo sapiens, BT-474, 0.045 μM, 72 h, read-out: % cytotoxicity (100 − % cell survival) of BT474 cell line

| SMILES | cytotoxicity at 0.045 µM [%] |
| --- | --- |
| Nc1ccc(S(=O)(=O)Nc2nnc(S(=O)(=O)NC(=O)c3ccccc3N)s2)cc1 [Compound 7b] | 29.5 |

Same assay, conditions: Homo sapiens, BT-474, 0.13 μM, 72 h, read-out: % cytotoxicity (100 − % cell survival) of BT474 cell line

| SMILES | cytotoxicity at 0.13 µM [%] |
| --- | --- |
| Nc1ccc(S(=O)(=O)Nc2nnc(S(=O)(=O)NC(=O)c3ccccc3N)s2)cc1 [Compound 7b] | 30.2 |

Same assay, conditions: Homo sapiens, BT-474, 0.41 μM, 72 h, read-out: % cytotoxicity (100 − % cell survival) of BT474 cell line

| SMILES | cytotoxicity at 0.41 µM [%] |
| --- | --- |
| Nc1ccc(S(=O)(=O)Nc2nnc(S(=O)(=O)NC(=O)c3ccccc3N)s2)cc1 [Compound 7b] | 31.4 |

Same assay, conditions: Homo sapiens, BT-474, 1.23 μM, 72 h, read-out: % cytotoxicity (100 − % cell survival) of BT474 cell line

| SMILES | cytotoxicity at 1.23 µM [%] |
| --- | --- |
| Nc1ccc(S(=O)(=O)Nc2nnc(S(=O)(=O)NC(=O)c3ccccc3N)s2)cc1 [Compound 7b] | 32.2 |

Same assay, conditions: Homo sapiens, BT-474, 3.7 μM, 72 h, read-out: % cytotoxicity (100 − % cell survival) of BT474 cell line

| SMILES | cytotoxicity at 3.7 µM [%] |
| --- | --- |
| Nc1ccc(S(=O)(=O)Nc2nnc(S(=O)(=O)NC(=O)c3ccccc3N)s2)cc1 [Compound 7b] | 33.3 |

Same assay, conditions: Homo sapiens, BT-474, 11.11 μM, 72 h, read-out: % cytotoxicity (100 − % cell survival) of BT474 cell line

| SMILES | cytotoxicity at 11.11 µM [%] |
| --- | --- |
| Nc1ccc(S(=O)(=O)Nc2nnc(S(=O)(=O)NC(=O)c3ccccc3N)s2)cc1 [Compound 7b] | 34.6 |

Same assay, conditions: Homo sapiens, BT-474, 33.33 μM, 72 h, read-out: % cytotoxicity (100 − % cell survival) of BT474 cell line

| SMILES | cytotoxicity at 33.33 µM [%] |
| --- | --- |
| Nc1ccc(S(=O)(=O)Nc2nnc(S(=O)(=O)NC(=O)c3ccccc3N)s2)cc1 [Compound 7b] | 35.5 |

Same assay, conditions: Homo sapiens, BT-474, 100 μM, 72 h, read-out: % cytotoxicity (100 − % cell survival) of BT474 cell line

| SMILES | cytotoxicity at 100 µM [%] |
| --- | --- |
| Nc1ccc(S(=O)(=O)Nc2nnc(S(=O)(=O)NC(=O)c3ccccc3N)s2)cc1 [Compound 7b] | 36.6 |

System: NCI-H226 (lung cancer cell line)
Experiment: In vitro cytotoxicity by MTT assay, NCI-H226
Format: cell-based
Conditions: Homo sapiens, NCI-H226, 0.005 μM, 72 h, read-out: % Cytotoxicity (100 − % cell survival) of NCI-H226 cell line
Protocol: as §1, §2

| SMILES | cytotoxicity at 0.005 µM [%] |
| --- | --- |
| Nc1ccc(S(=O)(=O)Nc2nnc(S(=O)(=O)NC(=O)c3ccccc3N)s2)cc1 [Compound 7b] | 33.5 |

Same assay, conditions: Homo sapiens, NCI-H226, 0.045 μM, 72 h, read-out: % Cytotoxicity (100 − % cell survival) of NCI-H226 cell line

| SMILES | cytotoxicity at 0.045 µM [%] |
| --- | --- |
| Nc1ccc(S(=O)(=O)Nc2nnc(S(=O)(=O)NC(=O)c3ccccc3N)s2)cc1 [Compound 7b] | 35.5 |

Same assay, conditions: Homo sapiens, NCI-H226, 0.13 μM, 72 h, read-out: % Cytotoxicity (100 − % cell survival) of NCI-H226 cell line

| SMILES | cytotoxicity at 0.13 µM [%] |
| --- | --- |
| Nc1ccc(S(=O)(=O)Nc2nnc(S(=O)(=O)NC(=O)c3ccccc3N)s2)cc1 [Compound 7b] | 37 |

Same assay, conditions: Homo sapiens, NCI-H226, 0.41 μM, 72 h, read-out: % Cytotoxicity (100 − % cell survival) of NCI-H226 cell line

| SMILES | cytotoxicity at 0.41 µM [%] |
| --- | --- |
| Nc1ccc(S(=O)(=O)Nc2nnc(S(=O)(=O)NC(=O)c3ccccc3N)s2)cc1 [Compound 7b] | 37.4 |

Same assay, conditions: Homo sapiens, NCI-H226, 1.23 μM, 72 h, read-out: % Cytotoxicity (100 − % cell survival) of NCI-H226 cell line

| SMILES | cytotoxicity at 1.23 µM [%] |
| --- | --- |
| Nc1ccc(S(=O)(=O)Nc2nnc(S(=O)(=O)NC(=O)c3ccccc3N)s2)cc1 [Compound 7b] | 38.8 |

Same assay, conditions: Homo sapiens, NCI-H226, 3.7 μM, 72 h, read-out: % Cytotoxicity (100 − % cell survival) of NCI-H226 cell line

| SMILES | cytotoxicity at 3.7 µM [%] |
| --- | --- |
| Nc1ccc(S(=O)(=O)Nc2nnc(S(=O)(=O)NC(=O)c3ccccc3N)s2)cc1 [Compound 7b] | 39.1 |

Same assay, conditions: Homo sapiens, NCI-H226, 11.11 μM, 72 h, read-out: % Cytotoxicity (100 − % cell survival) of NCI-H226 cell line

| SMILES | cytotoxicity at 11.11 µM [%] |
| --- | --- |
| Nc1ccc(S(=O)(=O)Nc2nnc(S(=O)(=O)NC(=O)c3ccccc3N)s2)cc1 [Compound 7b] | 40.6 |

Same assay, conditions: Homo sapiens, NCI-H226, 33.33 μM, 72 h, read-out: % Cytotoxicity (100 − % cell survival) of NCI-H226 cell line

| SMILES | cytotoxicity at 33.33 µM [%] |
| --- | --- |
| Nc1ccc(S(=O)(=O)Nc2nnc(S(=O)(=O)NC(=O)c3ccccc3N)s2)cc1 [Compound 7b] | 41.1 |

Same assay, conditions: Homo sapiens, NCI-H226, 100 μM, 72 h, read-out: % Cytotoxicity (100 − % cell survival) of NCI-H226 cell line

| SMILES | cytotoxicity at 100 µM [%] |
| --- | --- |
| Nc1ccc(S(=O)(=O)Nc2nnc(S(=O)(=O)NC(=O)c3ccccc3N)s2)cc1 [Compound 7b] | 42.4 |

System: not listed separately
Experiment: In vitro cytotoxicity by MTT assay, NCI-H226
Format: cell-based
Conditions: human, NCI-H226 lung cancer cells, 0.015 μM, read-out: % Cytotoxicity (100 − % cell survival) of NCI-H226 cell line
Protocol: as §1, §2

| SMILES | cytotoxicity at 72 h, 0.015 µM [%] |
| --- | --- |
| Nc1ccc(S(=O)(=O)Nc2nnc(S(=O)(=O)NC(=O)c3ccccc3N)s2)cc1 [Compound 7b] | 33.6 |

System: not listed separately
Experiment: In vitro cytotoxicity by MTT assay, HEK 293
Format: cell-based, human
Conditions: human, HEK 293 cells, 0.005 μM, read-out: % cytotoxicity (100 − % cell survival) of HEK 293 cell line
Protocol: as §1, §2

| SMILES | cytotoxicity at 72 h, 0.005 µM [%] |
| --- | --- |
| Nc1ccc(S(=O)(=O)Nc2nnc(S(=O)(=O)NC(=O)c3ccccc3N)s2)cc1 [Compound 7b] | 37.8 |

Same assay, conditions: human, HEK 293 cells, 0.015 μM, read-out: % cytotoxicity (100 − % cell survival) of HEK 293 cell line

| SMILES | cytotoxicity at 72 h, 0.015 µM [%] |
| --- | --- |
| Nc1ccc(S(=O)(=O)Nc2nnc(S(=O)(=O)NC(=O)c3ccccc3N)s2)cc1 [Compound 7b] | 39.2 |

Same assay, conditions: human, HEK 293 cells, 0.045 μM, read-out: % cytotoxicity (100 − % cell survival) of HEK 293 cell line

| SMILES | cytotoxicity at 72 h, 0.045 µM [%] |
| --- | --- |
| Nc1ccc(S(=O)(=O)Nc2nnc(S(=O)(=O)NC(=O)c3ccccc3N)s2)cc1 [Compound 7b] | 40.5 |

Same assay, conditions: human, HEK 293 cells, 0.13 μM, read-out: % cytotoxicity (100 − % cell survival) of HEK 293 cell line

| SMILES | cytotoxicity at 72 h, 0.13 µM [%] |
| --- | --- |
| Nc1ccc(S(=O)(=O)Nc2nnc(S(=O)(=O)NC(=O)c3ccccc3N)s2)cc1 [Compound 7b] | 44 |

Same assay, conditions: human, HEK 293 cells, 0.41 μM, read-out: % cytotoxicity (100 − % cell survival) of HEK 293 cell line

| SMILES | cytotoxicity at 72 h, 0.41 µM [%] |
| --- | --- |
| Nc1ccc(S(=O)(=O)Nc2nnc(S(=O)(=O)NC(=O)c3ccccc3N)s2)cc1 [Compound 7b] | 45.3 |

Same assay, conditions: human, HEK 293 cells, 1.23 μM, read-out: % cytotoxicity (100 − % cell survival) of HEK 293 cell line

| SMILES | cytotoxicity at 72 h, 1.23 µM [%] |
| --- | --- |
| Nc1ccc(S(=O)(=O)Nc2nnc(S(=O)(=O)NC(=O)c3ccccc3N)s2)cc1 [Compound 7b] | 46.5 |

Same assay, conditions: human, HEK 293 cells, 3.7 μM, read-out: % cytotoxicity (100 − % cell survival) of HEK 293 cell line

| SMILES | cytotoxicity at 72 h, 3.7 µM [%] |
| --- | --- |
| Nc1ccc(S(=O)(=O)Nc2nnc(S(=O)(=O)NC(=O)c3ccccc3N)s2)cc1 [Compound 7b] | 47.8 |

Same assay, conditions: human, HEK 293 cells, 11.11 μM, read-out: % cytotoxicity (100 − % cell survival) of HEK 293 cell line

| SMILES | cytotoxicity at 72 h, 11.11 µM [%] |
| --- | --- |
| Nc1ccc(S(=O)(=O)Nc2nnc(S(=O)(=O)NC(=O)c3ccccc3N)s2)cc1 [Compound 7b] | 48.2 |

Same assay, conditions: human, HEK 293 cells, 33.33 μM, read-out: % cytotoxicity (100 − % cell survival) of HEK 293 cell line

| SMILES | cytotoxicity at 72 h, 33.33 µM [%] |
| --- | --- |
| Nc1ccc(S(=O)(=O)Nc2nnc(S(=O)(=O)NC(=O)c3ccccc3N)s2)cc1 [Compound 7b] | 50.7 |

Same assay, conditions: human, HEK 293 cells, 100 μM, read-out: % cytotoxicity (100 − % cell survival) of HEK 293 cell line

| SMILES | cytotoxicity at 72 h, 100 µM [%] |
| --- | --- |
| Nc1ccc(S(=O)(=O)Nc2nnc(S(=O)(=O)NC(=O)c3ccccc3N)s2)cc1 [Compound 7b] | 51.9 |
